Measurements reported in ChEMBL document CHEMBL1144109, “Structures and cytotoxicity relationship of isoaaptamine and aaptamine derivatives” (J Nat Prod, 1999).
In brackets after ≈: the same amount, converted by molar mass.

Assays:
Format in all cases: functional, cell-based
[1] = Cytotoxicity against human KB16 cells after 3 days by MTT assay; settings: KB16, 72 h
P388 = assay: Cytotoxicity against mouse P388 cells after 3 days by MTT assay; settings: P388, 72 h
A549 = assay: Cytotoxicity against human A549 cells after 6 days by MTT assay; settings: A549, 144 h
HT-29 = assay: Cytotoxicity against human HT-29 cells after 6 days by MTT assay; settings: HT-29, 144 h

Row | SMILES | IC50 [1] | IC50 (P388) | IC50 (A549) | IC50 (HT-29)
1 | CCCCCCC(=O)Oc1c(OC)cc2ccnc3c2c1N(C)C=C3 | 38 µg/mL (≈ 112 µM) | 0.7 µg/mL (≈ 2.06 µM) | 11 µg/mL (≈ 32.3 µM) | 13 µg/mL (≈ 38.2 µM)
2 | COC1=Cc2ccnc3c2C1=C(OC)NC=C3 [AAPTOSINE] |  |  | > 50 µg/mL | > 50 µg/mL
3 | COc1cc2ccnc3c2c(c1OC)NC=C3 [AAPTAMINE] | 3.9 µg/mL (≈ 17.1 µM) | 0.6 µg/mL (≈ 2.63 µM) | 2.8 µg/mL (≈ 12.3 µM) | 6.9 µg/mL (≈ 30.2 µM)
4 | CCCCCC(=O)N1CCc2cc(OC)c(OC)c3nccc1c23 | > 50 µg/mL | 3.7 µg/mL (≈ 11.3 µM) | > 50 µg/mL | > 50 µg/mL
5 | CCCCC(=O)Oc1c(OC)cc2ccnc3c2c1N(C)C=C3 | 35 µg/mL (≈ 112 µM) | 1.8 µg/mL (≈ 5.76 µM) | 13 µg/mL (≈ 41.6 µM) | 9 µg/mL (≈ 28.8 µM)
6 | CCCCCCCCC(=O)Oc1c(OC)cc2ccnc3c2c1N(C)C=C3 | 33 µg/mL (≈ 89.6 µM) | 0.04 µg/mL (≈ 0.109 µM) | 12 µg/mL (≈ 32.6 µM) | 3 µg/mL (≈ 8.14 µM)
7 | CCCCCCCCCCCCCC(=O)Oc1c(OC)cc2ccnc3c2c1N(C)C=C3 | 3.3 µg/mL (≈ 7.52 µM) | 0.3 µg/mL (≈ 0.684 µM) | 5.6 µg/mL (≈ 12.8 µM) | 2.7 µg/mL (≈ 6.16 µM)
8 | CCCCCCCCCC(=O)Oc1c(OC)cc2ccnc3c2c1N(C)C=C3 | 20 µg/mL (≈ 52.3 µM) | 0.03 µg/mL (≈ 0.0784 µM) | 6.1 µg/mL (≈ 15.9 µM) | 2.5 µg/mL (≈ 6.54 µM)
9 | COc1cc2ccnc3c2c(c1OC(C)=O)N(C)C=C3 | > 50 µg/mL | 4.2 µg/mL (≈ 15.5 µM) | > 50 µg/mL | > 50 µg/mL
10 | COc1cc2ccnc3c2c(c1O)N(C)C=C3 [ISOAAPTAMINE] | 0.4 µg/mL (≈ 1.75 µM) | 0.04 µg/mL (≈ 0.175 µM) | 0.3 µg/mL (≈ 1.31 µM) | 0.4 µg/mL (≈ 1.75 µM)
11 | CCCCCCCCCCCC(=O)Oc1c(OC)cc2ccnc3c2c1N(C)C=C3 | 20 µg/mL (≈ 48.7 µM) | 0.03 µg/mL (≈ 0.0731 µM) | 3.7 µg/mL (≈ 9.01 µM) | 2.5 µg/mL (≈ 6.09 µM)
12 | CCCCCCCCCCCC(=O)N1CCc2cc(OC)c(OC)c3nccc1c23 | 7.8 µg/mL (≈ 18.9 µM) | 0.1 µg/mL (≈ 0.242 µM) | 5.6 µg/mL (≈ 13.6 µM) | 9.6 µg/mL (≈ 23.3 µM)
13 | COC1=Cc2ccnc3ccnc(c23)C1=O [DEMETHYLOXY-AAPTAMINE] | 0.1 µg/mL (≈ 0.471 µM) | 0.01 µg/mL (≈ 0.0471 µM) | 0.3 µg/mL (≈ 1.41 µM) | 
14 | CCC(=O)Oc1c(OC)cc2ccnc3c2c1N(C)C=C3 | 28 µg/mL (≈ 98.5 µM) | 1.4 µg/mL (≈ 4.92 µM) | 18 µg/mL (≈ 63.3 µM) | 13 µg/mL (≈ 45.7 µM)
15 | CCCCCCCCCCCCCCCCCC(=O)N1CCc2cc(OC)c(OC)c3nccc1c23 | 20 µg/mL (≈ 40.3 µM) | 2.7 µg/mL (≈ 5.44 µM) | > 50 µg/mL | > 50 µg/mL
16 | CCCCCCCCCCCCCCCCCC(=O)Oc1c(OC)cc2ccnc3c2c1N(C)C=C3 | > 50 µg/mL | 1.1 µg/mL (≈ 2.22 µM) | > 50 µg/mL | 21 µg/mL (≈ 42.4 µM)
17 | CCCCCC(=O)Oc1c(OC)cc2ccnc3c2c1N(C)C=C3 | 33 µg/mL (≈ 101 µM) | 0.7 µg/mL (≈ 2.14 µM) | 13 µg/mL (≈ 39.8 µM) | 12 µg/mL (≈ 36.8 µM)
18 | CCCCCCCCCCCCCCCC(=O)Oc1c(OC)cc2ccnc3c2c1N(C)C=C3 | 8 µg/mL (≈ 17.1 µM) | 0.1 µg/mL (≈ 0.214 µM) | 7.3 µg/mL (≈ 15.6 µM) | 9 µg/mL (≈ 19.3 µM)
19 | COc1cc2c3c(ccnc3c1OC)N(C(C)=O)CC2 | 32 µg/mL (≈ 118 µM) | 2.6 µg/mL (≈ 9.55 µM) | 20 µg/mL (≈ 73.4 µM) | 17 µg/mL (≈ 62.4 µM)
20 | CCCCCCCC(=O)Oc1c(OC)cc2ccnc3c2c1N(C)C=C3 | 15 µg/mL (≈ 42.3 µM) | 1.5 µg/mL (≈ 4.23 µM) | 14 µg/mL (≈ 39.5 µM) | 12 µg/mL (≈ 33.9 µM)
21 | COc1cc2c3c(ccnc3c1OC)NCC2 [DIHYDROAAPTAMINE] | 22 µg/mL (≈ 95.5 µM) | 1.8 µg/mL (≈ 7.82 µM) | 23 µg/mL (≈ 99.9 µM) | 47 µg/mL (≈ 204 µM)
